Experiments:
Format in all cases: cell-based
Jurkat T cells [1] = test: Radio frequency sensor device measurement of cellular energy metabolism in Jurkat T cell suspension (Example 1); conditions: for radio frequency peak in magnitude at 64 MHz: final concentration 200 mg/dl in low D-glucose DMEM, about 8 h
Experimental: Jurkat T cells were obtained from American Type Culture Collection (ATCC) (#TIB-152) and maintained in high D-Glucose Dulbecco's Modified Eagle Medium (DMEM) (THERMO FISHER SCIENTIFIC INC., #10565042, 17.5 mM/315 mg/dl D-glucose) supplemented with 10% fetal bovine serum (FBS, THERMO FISHER SCIENTIFIC INC., #16140071), penicillin/streptomycin (Pen/Strep), beta-Mercaptoethanol (b-ME) in a 37° C. humidified incubator, 5% CO2. At time point 0:00 (hr.: min.), Jurkat T cells (3×10^9) were suspended in three separate solutions of low D-glucose DMEM (THERMO FISHER SCIENTIFIC INC., #10565042, 5.5 mM (100 mg/dl D-glucose) supplemented with fetal bovine serum (10% v/v, THERMO FISHER SCIENTIFIC INC. #16140071), penicillin/streptomycin (Pen/Strep), beta-mercaptoethanol (20 ml of media, 5×10^7 cells per mL each) in tissue culture dishes (10 cm). The cell suspension was placed in an incubator at 37° C. at maximum humidity, carbon dioxide concentration of 5%. Cells were mixed continuously on an orbital shaker (60 rpm). Following 60 minutes of incubation for equilibration, a sensor device of this disclosure was placed in each solution. To the resulting solutions were added 200 μl of media containing 100× D-glucose (e.g., to a final concentration of 200 mg/dl), control media (identical media, but containing low D-glucose (5.5 mM, 100 mg/dl)), and media containing 100× 2-deoxy-D-glucose (identical media, but replacing D-glucose with 2-deoxy-D-glucose at a final concentration of e.g., 200 mg/dl). The radio frequency was detected at 64MHz with the sensor device over the course of approximately 8 h.

Jurkat T cells [2] = test: Radio frequency monitoring device measurement at 64 MHz in Jurkat T cell suspensions (Example 5); conditions: for net change in radio frequency magnitude (plain medium subtracted as background): 64 MHz
Experimental: The degree of cellular energy metabolism was monitored by radio frequency in Jurkat T cell suspensions to compare to direct intracellular ATP measurement of Example 4. Jurkat T cell suspensions were maintained as in Example 4. A radio frequency monitoring device was placed in the cell culture and monitored at 64 MHz frequency as a function of time. Cells were stimulated by addition of (a) D-glucose (180 mg/dl final concentration in DMEM), (b) 2-deoxy-D-glucose (2DG, 180 mg/dl final concentration in DMEM), (c) D-glucose (180 mg/dl final concentration) and BAY-876 (a glucose transporter 1 inhibitor, 5 μM final concentration), and (d) DMEM with low D-glucose (5.5 mM, 100 mg/dl, ‘plain medium’). All stimulations were conducted with the same volume of liquid.

Jurkat T cells [3] = test: Luciferase-based assay of intracellular ATP concentration (CELLTITER-GLO 2.0); conditions: D-glucose 15.5 mM (280 mg/dl final) versus low D-glucose 5.5 mM
Experimental: Intracellular ATP concentrations were assessed using a luciferase-based assay to determine the rate of ATP production following addition of glucose. Jurkat T cells (1×10^7 cells per well in low D-glucose DMEM (100 μl, 5.5 mM, 100 mg/dl D-glucose)) were aliquoted into flat-bottom 96-well plates. Cells were stimulated with DMEM either containing D-glucose (15.5 mM, 280 mg/dl final solution) or low D-glucose (5.5 mM, 100 mg/dl), an effective difference of 10 mM (180 mg/dl) glucose, at time point 0 min. Cells were quantitatively removed from the incubation plate. An aliquot of cell suspension (50 μl) was transferred onto frozen CELLTITER-GLO® 2.0 (PROMEGA CO.) assay reagent on dry ice. The resulting mixture was thawed, and the ATP concentration measured via light emission in a 96-well plate-compatible luminometer. The resulting curve of luciferase activity in relative luminescence units (RLUs) over time (min. following stimulation) is shown in FIG. 7. […] Glucose transport is rapid as indicated by the rapid increase of ATP concentration following addition of D-glucose.

[4] = 180 mg/dl final concentration in DMEM

Row | SMILES | radio frequency peak in magnitude at 64 MHz (Jurkat T cells [1]) | magnitude at 64 MHz over time (curve shape) (Jurkat T cells [2]; [4]) | net change in radio frequency magnitude (plain medium subtracted as background) (Jurkat T cells [2]; [4]) | magnitude at 64 MHz over time (curve shape) (Jurkat T cells [2]; BAY-876 5 μM final with D-glucose 180 mg/dl final) | difference in luminescence (net ATP concentration) over time (Jurkat T cells [3]) | time of apex of radio frequency peak (Jurkat T cells [1]; D-glucose 200 mg/dl final)
1 | O=CC[C@@H](O)[C@H](O)[C@H](O)CO [2-deoxy-D-glucose] | no detectable peak | an initial peak, similar to D-glucose, the magnitude at 64 MHz quickly adopts a similar linear decline | only an initial net increase |  |  | 
2 | Cc1c(NC(=O)c2cc(C(N)=O)nc3cc(F)ccc23)c(C(F)(F)F)nn1Cc1ccc(C#N)cc1 [BAY-876] |  |  |  | a smooth decline becoming linear over time |  | 
3 | O=C[C@H](O)[C@@H](O)[C@H](O)[C@H](O)CO [D-glucose] | a broad peak was observed | both a peak shortly after addition of stimulus, and a more gradual decline | an initial net increase in magnitude followed by a slow net decrease |  | an increase in net ATP concentration followed by a slower decrease in net ATP concentration | approximately 4 h

Reference: patent US20260000351A1, “NON-INVASIVE METHODS OF MEASURING THE DEGREE OF CELLULAR ENERGY METABOLISM” (AMAZON TECHNOLOGIES, INC., priority 2023, published 2026)
